Reference: patent publication US9758788B2, “Mutagenesis of plants for overproduction of selective estrogen receptor modulators” (Naprogenix, Inc., priority 2014, dated 2017)

Legend:
transgenic hDAT 1°HRs = test: Toxicity of DA-ergic toxins, trypan blue staining, transgenic hairy roots; conditions: for cells killed by toxin exposure: 24 h, 6-OHDA 50 uM, MPTP 100 μM, MPP+ 100 μM
Excerpt: (§1) Trypan blue staining for toxicity was quantified using ImageJ software. […] Since MPTP is converted to the its cytotoxic metabolite, MPP+, by oxidases, biosynthesis of oxidase inhibitors would also confer a survival advantage if MPTP were chosen as a selection agent (monoamine oxidase inhibitors prevent MPTP toxicity in SH-SY5Y neuroblastoma cells).

Non-transgenic 1°HRs = test: Toxicity of DA-ergic toxins, trypan blue staining, non-transgenic hairy roots; type: cell-based, Lobelia cardinalis; conditions: 6-OHDA 50 uM, MPTP 100 μM, MPP+ 100 μM
Excerpt: as §1

nicAChRs [1] = test: [3H]-dopamine release from rat brain striatal slices; type: biochemical
alpha7 nicAChR = target: T1, alpha7 nicAChR (Rattus norvegicus, UniProt Q05941); test: nicAChR binding: inhibition of [3H]-MLA binding; conditions: alpha7 selective ligand
T1 construct: from tissue; host or cells: rat brain preparation (inferred)
Excerpt: (§2) Lobinaline was purified from a methanol extract prepared from dried aerial portions of L. cardinalis. The methanolic extract was dried under vacuum, resuspended in water, and defatted with hexane. The hexane phase was removed, and the remaining aqueous phase was partitioned with chloroform. The chloroform phase was collected, dried under vacuum, and lobinaline was purified from this fraction by acid/base extraction to yield lobinaline of ˜95% purity (single peak and spectroscopic authenticity by GC-MS). This compound was then dissolved in DMSO and used in aqueous solution to evaluate its effects on the dopamine transporter and nicAChRs, both in rat brain preparations and in the human dopaminergic neuroblastoma cell line SH-SY5Y. Antioxidant activity of lobinaline was evaluated using the dipheny picryl hydrazyl free radical scavenging assay.
(§3) It is therefore relatively non-selective, whereas almost all known plant alkaloids are relatively selective for the […] nicAChR.

[2] = mice; compared with lobeline; cited from earlier work
SH-SY5Y cells = test: MPP+ toxicity on SH-SY5Y cells; type: cell-based, human
Excerpt: as §2
(§4) The low affinity binding of lobinaline to this site on the DAT may therefore not be directly related to its functional effect.

[3] = DPPH free radical scavenging assay; conditions: read-out: IC50, inhibition of DPPH free radical activity
Excerpt: as §2
Stable free radical diphenyl picryl hydrazyl (DPPH) scavenging was used to assess anti-oxidant activity.
Dried methanolic extracts prepared from individual L. cardinalis hairy roots were dissolved in assay buffer and tested for (a) concentration-dependent effects on [^3H]-DA uptake into rat striatal synaptosomes, (b) quenching stable DPPH radical, as measured by absorbance at 517 nm. The results are presented as “lobinaline equivalents” calculated from pure lobinaline concentration response curves (FIG. 1). […]

DAT = target: T2, DAT (Rattus norvegicus, UniProt P23977); test: [3H]-GBR12935 specific binding to rat striatal membranes
T2 construct: from tissue; host or cells: rat striatal membranes
Excerpt: as §4

[4] = target: T3, dopamine transporter (DAT) (Rattus norvegicus, UniProt P23977); test: [3H]-dopamine uptake into rat striatal synaptosomes; type: biochemical
T3 construct: from tissue; host or cells: rat striatal synaptosomes

[5] = PubChem; cited from earlier work
nicAChRs [6] = test: nicAChR binding: inhibition of [3H]-epibatidine binding; set-up: species or system rat; conditions: non-subtype selective radioligand
Excerpt: as §2, §3

T3 sequence (P23977 whole entry): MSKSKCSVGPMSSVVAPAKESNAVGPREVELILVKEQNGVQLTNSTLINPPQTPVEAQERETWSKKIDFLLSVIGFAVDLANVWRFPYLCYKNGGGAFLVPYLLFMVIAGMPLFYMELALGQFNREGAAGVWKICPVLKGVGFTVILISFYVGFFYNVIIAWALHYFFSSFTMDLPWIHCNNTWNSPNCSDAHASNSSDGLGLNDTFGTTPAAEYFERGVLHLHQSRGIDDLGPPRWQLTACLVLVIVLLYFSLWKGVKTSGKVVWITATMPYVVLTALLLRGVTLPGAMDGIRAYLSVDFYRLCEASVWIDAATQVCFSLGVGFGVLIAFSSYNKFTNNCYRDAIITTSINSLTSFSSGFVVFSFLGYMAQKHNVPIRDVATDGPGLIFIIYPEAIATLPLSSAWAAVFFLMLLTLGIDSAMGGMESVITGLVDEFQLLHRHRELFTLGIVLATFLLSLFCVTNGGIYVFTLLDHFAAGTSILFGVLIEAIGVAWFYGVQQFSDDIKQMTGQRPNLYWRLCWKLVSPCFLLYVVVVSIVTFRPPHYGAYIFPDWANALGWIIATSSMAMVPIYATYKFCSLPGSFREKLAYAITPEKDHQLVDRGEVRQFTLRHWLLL
T2 sequence (P23977 whole entry): as above
T1 sequence (Q05941 23-502): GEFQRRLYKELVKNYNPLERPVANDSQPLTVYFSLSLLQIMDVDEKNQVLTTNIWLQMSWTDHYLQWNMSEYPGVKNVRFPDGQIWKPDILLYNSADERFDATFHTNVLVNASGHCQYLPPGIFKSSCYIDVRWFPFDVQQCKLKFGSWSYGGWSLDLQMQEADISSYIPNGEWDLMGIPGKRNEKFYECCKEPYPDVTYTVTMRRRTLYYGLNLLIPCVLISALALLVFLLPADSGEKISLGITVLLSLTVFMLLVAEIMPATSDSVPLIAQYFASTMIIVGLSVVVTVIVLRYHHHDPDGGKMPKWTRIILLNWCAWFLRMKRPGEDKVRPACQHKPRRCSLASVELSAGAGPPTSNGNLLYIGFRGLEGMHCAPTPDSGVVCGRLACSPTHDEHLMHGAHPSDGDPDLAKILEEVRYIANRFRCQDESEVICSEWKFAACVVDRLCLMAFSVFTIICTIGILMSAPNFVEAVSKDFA

In the case of `NCCc1cc(O)c(O)cc1O` [6-OHDA], the “cells killed by toxin exposure” value (transgenic hDAT 1°HRs) is reported as about 50% and the “damage by toxin exposure” value (Non-transgenic 1°HRs) is reported as “not significantly damaged”.
For `Fc1ccc(C(OCCN2CCN(CCCc3ccccc3)CC2)c2ccc(F)cc2)cc1` [GBR12909], the “inhibition of toxin cytotoxicity” value (transgenic hDAT 1°HRs; toxins 6-OHDA, MPTP or MPP+) was “inhibited”.
With `C[n+]1ccc(-c2ccccc2)cc1` [MPP+] the “cells killed by toxin exposure” value (transgenic hDAT 1°HRs) was about 50% and the “damage by toxin exposure” value (Non-transgenic 1°HRs) was “not significantly damaged”.
In the case of `CN1CC=C(c2ccccc2)CC1` [MPTP], the “cells killed by toxin exposure” value (transgenic hDAT 1°HRs) is reported as about 50% and the “damage by toxin exposure” value (Non-transgenic 1°HRs) is reported as “not significantly damaged”.
In the case of `CN1CCCC2C(c3ccccc3)C(C3=NCCCC3)C(c3ccccc3)CC21` (stereo not shown) [lobinaline], the “effect on DA release induced by nicotine” value (nicAChRs [1]; 10 μM nicotine) is given as “reduced the DA release”, the Ki (alpha7 nicAChR) is given as 105 µM and the “mammalian toxicity (LD50)” value [2] is given as “low mammalian toxicity”. The “concentration inhibiting the toxicity of MPP+” value (SH-SY5Y cells) was about 100 µM, the IC50 [3] was 21.1 µM and the “inhibition of [3H]-GBR12935 specific binding (extent)” value (DAT) was “completely inhibited”. For the same molecule, the Ki (DAT; read-out: Ki, inhibition of [3H]-GBR12935 specific binding) was 89 µM, the “maximum inhibition of dopamine uptake” value [4] was 85.25% and the IC50 ([4]; read-out: IC50, inhibition of [3H]-dopamine uptake) was 12 µM. The “Hydrogen Bond Acceptors” value [5] was 2, the “Hydrogen Bond Donors” value [5] was 0 and the “Log P” value [5] was 4.8. The Ki (nicAChRs [6]) was 17.3 µM.
For `CNC1(C)C2CCC(C2)C1(C)C` (stereo not shown) [mecamylamine, reference compound], the “inhibition of the initial phase of [3H] release caused by the lobinaline-containing fraction” value (nicAChRs [1]; 10 μM mecamylamine) was “almost completely inhibited”.
In the case of `O=c1c(O)c(-c2ccc(O)c(O)c2)oc2cc(O)cc(O)c12` [quercetin, reference compound], the IC50 [3] is reported as 11.2 µM.
